Measurements from US3963707A, “Novel N-nitroso compounds, compositions containing such compounds, processes for their preparation and methods of treatment therewith, and novel intermediates” (Aktiebolaget Leo, priority 1973, dated 1976).

Experiments:
[1] = test system: Hepatoma AH 130; assay: in vivo; parameters: species or system SPF Wistar rats; details: additional compounds, result in words
From the text: (§1) The high activity against tumours is further illustrated in these experiments by comparisons with known antitumour agents used in the therapy. The therapeutic indexes (T.I.), i.e. the ratios LD50/ED50, are in all comparisons much more favourable with the compounds of the present invention.
(§2) LD50 is the dose that caused a 50 percent lethality of the animals, ED50 is the dose that caused a 50 percent reduction of tumour size.
(§3) The experimental design and the interpretation of the results have been in accordance with the standards set by the CCNSC (Cancer Chemotherapy Reports, January 1959 and December 1962), and by the DR&D (Cancer Chemotherapy Reports, September 1972, Vol. 3, No. 2).
(§4) The way of administration is by the intraperitoneal route (i.p.) in each case.
Experimental animals: SPF Wistar rats.
Tumour implant: 5 × 10^6 tumour cells i.p.
(§5) Therapy: One injection i.p. on the day following implantation.
(§6) Termination: The animals are killed on the 8th day.
(§7) Evaluation: Weights of tumours of test animals compared with those of control animals.

[2] = test system: Ehrlich ascites tumour, ELD hyperdiploid (46 chromosomes); assay: Ehrlich ascites tumour test (LD50, ED50, therapeutic index); type: in vivo, SPF NMRI mice; details: additional compounds, result in words
From the text: as §1, §2, §3, §4
Ehrlich ascites tumour, ELD hyperdiploid (46 chromosomes)
Experimental animals: SPF NMRI mice.
Tumour implant: 2 × 10^6 tumour cells i.p.
as §5, §6, §7

## C[C@]12CCC(=O)C[C@@H]1CC[C@@H]1[C@@H]2CC[C@]2(C)[C@@H](OC(=O)N(C(=O)N(CCCl)N=O)C3CCCCC3)CC[C@@H]12 [dihydrotestosteron-17β-/N^2-cyclohexyl-N^4-(2-chloroethyl)-N^4-nitroso allophanate/]
[1]
  anti-tumor activity: exhibit anti-tumor activity
[2]
  anti-tumor activity: exhibit anti-tumor activity

## C#C[C@]1(OC(=O)N(CCCl)N=O)CC[C@H]2[C@@H]3CCC4=CC(=O)CC[C@@H]4[C@H]3CC[C@@]21C [17α-ethynyl-19-nortestosterone-17β-N-(2-chloroethyl)-N-nitroso carbamate]
[1]
  anti-tumor activity: exhibit anti-tumor activity
[2]
  anti-tumor activity: exhibit anti-tumor activity

## C#C[C@]1(OC(C)=O)CC[C@H]2[C@@H]3CCc4cc(OC(=O)N(CCCl)C(=O)N(CCCl)N=O)ccc4[C@H]3CC[C@@]21C [17α-ethynylestradiol-17β-acetate-3-/N^2,N^4-bis(2-chloroethyl)-N^4-nitroso allophanate/]
[1]
  anti-tumor activity: exhibit anti-tumor activity
[2]
  anti-tumor activity: exhibit anti-tumor activity

## C#C[C@]1(OC(=O)N(CCCl)C(=O)N(CCCl)N=O)CC[C@H]2[C@@H]3CCC4=CC(=O)CC[C@@H]4[C@H]3CC[C@@]21C [17α-ethynyl-19-nortestosterone-17β-/N^2,N^4-bis (2-chloroethyl)-N^4-nitroso allophanate/]
[1]
  anti-tumor activity: exhibit anti-tumor activity
[2]
  anti-tumor activity: exhibit anti-tumor activity

## C[C@]12CC[C@@H]3c4ccc(OC(=O)N(CCCl)N=O)cc4CC[C@H]3[C@@H]1CC[C@@H]2OP(=O)(O)O [estradiol-3-N-(2-chloroethyl)-N-nitroso carbamate-17β-dihydrogen phosphate]
[1]
  anti-tumor activity: exhibit anti-tumor activity
[2]
  anti-tumor activity: exhibit anti-tumor activity

## CCCOc1ccc(CCC(=O)O[C@H]2CC[C@H]3[C@@H]4CCc5cc(OC(=O)N(CCCl)N=O)ccc5[C@H]4CC[C@]23C)cc1 [estradiol-3-N-(2-chloroethyl)-N-nitroso carbamate-17β-(p-propoxyphenyl-propionate)]
[1]
  anti-tumor activity: exhibit anti-tumor activity
[2]
  anti-tumor activity: exhibit anti-tumor activity

## C#C[C@]1(OC(=O)N(CCCl)N=O)CC[C@H]2[C@@H]3CCC4=C(CCC(=O)C4)[C@H]3CC[C@@]21C [norethynodrel-17β-N-(2-chloroethyl)-N-nitroso carbamate]
[1]
  anti-tumor activity: exhibit anti-tumor activity
[2]
  anti-tumor activity: exhibit anti-tumor activity

## C[C@]12CC[C@@H](OC(=O)N(CCCl)N=O)C[C@@H]1CC[C@@H]1[C@@H]2CC[C@]2(C)[C@@H](O)CC[C@@H]12 [androstanediol-3α-N-(2-chloroethyl)-N-nitroso carbamate]
[1]
  anti-tumor activity: exhibit anti-tumor activity
[2]
  anti-tumor activity: exhibit anti-tumor activity

## CC[C@]1(OC(=O)N(CCCl)N=O)CC[C@H]2[C@@H]3CCC4=CC(=O)CC[C@@H]4[C@H]3CC[C@@]21C [17α-ethyl-19-nortestosterone-17β-N-(2-chloroethyl)-N-nitroso carbamate]
[1]
  anti-tumor activity: exhibit anti-tumor activity
[2]
  anti-tumor activity: exhibit anti-tumor activity

## CC(=O)O[C@@H]1C[C@H]2[C@@H]3CCc4cc(OC(=O)N(CCCl)N=O)ccc4[C@H]3CC[C@]2(C)[C@H]1OC(C)=O [estriol-16α,17β-diacetate-3-N-(2-chloroethyl)-N-nitroso carbamate]
[1]
  anti-tumor activity: exhibit anti-tumor activity
[2]
  anti-tumor activity: exhibit anti-tumor activity

## CC(=O)O[C@H]1CC[C@H]2[C@@H]3CCc4cc(OC(=O)N(CCCl)C(=O)N(CCCl)N=O)ccc4[C@H]3CC[C@]12C [estradiol-17β-acetate-3-/N^2,N^4-bis (2-chloroethyl)-N-^4-nitroso allophanate/]
[1]
  anti-tumor activity: exhibit anti-tumor activity
[2]
  anti-tumor activity: exhibit anti-tumor activity

## C[C@]12CC[C@H](OC(=O)N(CCCl)C(=O)N(CCCl)N=O)CC1=CC[C@@H]1[C@@H]2CC[C@]2(C)C(=O)CC[C@@H]12 [dehydroepiandrosterone-3β-/N^2,N^4-bis (2-chloroethyl)-N^4-nitroso allophanate/]
[1]
  anti-tumor activity: exhibit anti-tumor activity
[2]
  anti-tumor activity: exhibit anti-tumor activity

## C[C@]12CC[C@H](OC(=O)N(CCF)N=O)CC1=CC[C@@H]1[C@@H]2CC[C@]2(C)C(=O)CC[C@@H]12 [dehydroepiandrosterone-3β-N-(2-fluoroethyl)-N-nitroso carbamate]
[1]
  anti-tumor activity: exhibit anti-tumor activity
[2]
  anti-tumor activity: exhibit anti-tumor activity

## C[C@]12CC[C@H](OC(=O)N(C(=O)N(CCCl)N=O)c3ccc(Cl)cc3)CC1=CC[C@@H]1[C@@H]2CC[C@]2(C)C(=O)CC[C@@H]12 [dehydroepiandrosterone-3β-/N^2-(p-chlorophenyl)-N^4-(2-chloroethyl)-N^4-nitroso allophanate/]
[1]
  anti-tumor activity: exhibit anti-tumor activity
[2]
  anti-tumor activity: exhibit anti-tumor activity

## C[C@]12CC[C@@H](OC(=O)N(CCCl)N=O)C[C@@H]1CC[C@@H]1[C@@H]2CC[C@]2(C)[C@@H](OP(=O)(O)O)CC[C@@H]12 [androstanediol-3α-N-(2-chloroethyl)-N-nitroso carbamate-17β-dihydrogen phosphate]
[1]
  anti-tumor activity: exhibit anti-tumor activity
[2]
  anti-tumor activity: exhibit anti-tumor activity

## CCCCCCC(=O)O[C@H]1CC[C@H]2[C@@H]3CC[C@H]4C[C@H](OC(=O)N(CCCl)N=O)CC[C@]4(C)[C@H]3CC[C@]12C [androstanediol-3α-N-(2-chloroethyl)-N-nitroso carbamate-17β-oenanthate]
[1]
  anti-tumor activity: exhibit anti-tumor activity
[2]
  anti-tumor activity: exhibit anti-tumor activity

## C[C@]12CC[C@@H]3c4ccc(OC(=O)N(CCCl)N=O)cc4CC[C@H]3[C@@H]1CC[C@@H]2OS(=O)(=O)O [estradiol-3-N-(2-chloroethyl)-N-nitroso carbamate-17β-sodium sulphate]
[1]
  anti-tumor activity: exhibit anti-tumor activity
[2]
  anti-tumor activity: exhibit anti-tumor activity

## C[C@]12CC[C@@H](OC(=O)N(CCCl)N=O)C[C@H]1CC[C@@H]1[C@@H]2CC[C@]2(C)C(=O)CC[C@@H]12 [etiocholanolone-3α-N-(2-chloroethyl)-N-nitroso carbamate]
[1]
  anti-tumor activity: exhibit anti-tumor activity
[2]
  anti-tumor activity: exhibit anti-tumor activity

## C#C[C@]1(OC(=O)N(CCCl)N=O)CC[C@H]2[C@@H]3CCc4cc(OC(C)=O)ccc4[C@H]3CC[C@@]21C [17α-ethynylestradiol-3-acetate-17β-N-(2-chloroethyl)-N-nitroso carbamate]
[1]
  anti-tumor activity: exhibit anti-tumor activity
[2]
  anti-tumor activity: exhibit anti-tumor activity

## CC(C)CCC[C@@H](C)[C@H]1CC[C@H]2[C@@H]3CC=C4C[C@@H](OC(=O)N(C(=O)N(CCCl)N=O)C5CCCCC5)CC[C@]4(C)[C@H]3CC[C@]12C [cholesterol-3β-/N^2-cyclohexyl-N^4-(2-chloroethyl)-N^4-nitroso allophanate/]
[1]
  anti-tumor activity: exhibit anti-tumor activity
[2]
  anti-tumor activity: exhibit anti-tumor activity

## COc1ccc(N(C(=O)O[C@H]2CC[C@@]3(C)C(=CC[C@@H]4[C@@H]3CC[C@]3(C)C(=O)CC[C@@H]43)C2)C(=O)N(CCCl)N=O)cc1 [dehydroepiandrosterone-3β-/N^2-(p-methoxyphenyl)-N^4-(2-chloroethyl)-N^4-nitroso allophanate/]
[1]
  anti-tumor activity: exhibit anti-tumor activity
[2]
  anti-tumor activity: exhibit anti-tumor activity

## C[C@]12CC[C@H]3[C@@H](CCC4=CC(=O)CC[C@@]43C)[C@@H]1CC[C@@H]2C(=O)COC(=O)N(CCCl)N=O [deoxycorticosterone-21-N-(2-chloroethyl)-N-nitroso carbamate]
[1]
  anti-tumor activity: exhibit anti-tumor activity
[2]
  anti-tumor activity: exhibit anti-tumor activity

## C[C@]12CC[C@H](OC(=O)N(C(=O)N(CCCl)N=O)C3CCCCC3)CC1=CC[C@@H]1[C@@H]2CC[C@]2(C)C(=O)CC[C@@H]12 [dehydroepiandrosterone-3β-/N^2-cyclohexyl-N^4-(2-chloroethyl)-N^4-nitroso allophanate/]
[1]
  anti-tumor activity: exhibit anti-tumor activity
[2]
  anti-tumor activity: exhibit anti-tumor activity

## CC(=O)Oc1ccc2c(c1)CC[C@@H]1[C@@H]2CC[C@@]2(C)[C@H]1C[C@@H](OC(=O)N(CCCl)N=O)[C@@H]2OC(=O)N(CCCl)N=O [estriol-3-acetate-16α,17β-bis-/N-(2-chloroethyl)-N-nitroso carbamate/]
[1]
  anti-tumor activity: exhibit anti-tumor activity
[2]
  anti-tumor activity: exhibit anti-tumor activity

## CCCCCCOc1ccc(CCC(=O)O[C@H]2CC[C@H]3[C@@H]4CC=C5C[C@@H](OC(=O)N(CCCl)N=O)CC[C@]5(C)[C@H]4CC[C@]23C)cc1 [androstenediol-17β-p-hexoxyphenylpropionate-3β-N-(2 -chloroethyl)-N-nitroso carbamate]
[1]
  anti-tumor activity: exhibit anti-tumor activity

## CC(=O)[C@H]1CC[C@H]2[C@@H]3CC=C4C[C@@H](OC(=O)N(C(=O)N(CCCl)N=O)C5CCC(C)CC5)CC[C@]4(C)[C@H]3CC[C@]12C (stereo partly drawn) [pregnenolone-3β-/N^2-(4-methylcyclohexyl)-N^4-(2-chloroethyl)-N^4-nitroso allophanate/]
[1]
  anti-tumor activity: exhibit anti-tumor activity
